Where “and” joins values, the source holds several entries; their conditions need not be identical. Equal entries are not always repeated.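 Step 1: Grow cells in 96-well plates. Step 2: Expose to compound for 48 hours at 5 concentrations. Step 3: Interpolate endpoints linearly; if unreached, use highest concentration. GI50 is the concentration that inhibits growth by half. TGI denotes the concentration required for complete inhibition of growth.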
Assays:
Experiment in all cases: NCI tumour cell line growth inhibition, 48 h
SNB-75 CNS = system: SNB-75 CNS
SF-295 CNS = system: SF-295 CNS
786-0 renal = system: 786-0 renal
CCRF-CEM leukemia = system: CCRF-CEM leukemia
RPMI-8226 leukemia = system: RPMI-8226 leukemia
OVCAR-4 ovarian = system: OVCAR-4 ovarian
SK-MEL-28 melanoma = system: SK-MEL-28 melanoma
A549 NSCLC = system: A549 NSCLC
NCI-H226 lung = system: NCI-H226 lung
MDA-MB-231 breast = system: MDA-MB-231 breast

Compound	TGI (SNB-75 CNS) [µM]	TGI (SF-295 CNS) [µM]	TGI (786-0 renal)	TGI (CCRF-CEM leukemia) [µM]	TGI (RPMI-8226 leukemia)	TGI (OVCAR-4 ovarian)	TGI (SK-MEL-28 melanoma) [µM]	TGI (A549 NSCLC) [µM]	TGI (NCI-H226 lung) [µM]	GI50 (786-0 renal) [µM]	TGI (MDA-MB-231 breast) [µM]	GI50 (RPMI-8226 leukemia) [µM]	GI50 (OVCAR-4 ovarian) [µM]	GI50 (NCI-H226 lung) [µM]	GI50 (SF-295 CNS) [µM]	GI50 (MDA-MB-231 breast) [µM]	GI50 (SK-MEL-28 melanoma) [µM]	GI50 (A549 NSCLC) [µM]	GI50 (SNB-75 CNS) [µM]	GI50 (CCRF-CEM leukemia) [µM]
Cc1cc2c(=O)cc(-c3ccc(C(=O)O)cc3)oc2c(C(N)=O)c1C	> 100	> 100	> 100 µM	> 100	> 100 µM	> 100 µM	> 100	> 100												
CN1C[C@@H]2CC(=O)CC[C@@H]2C[C@H]1C#N	> 100	> 100	> 100 µM	> 100	> 100 µM	> 100 µM		> 100	> 100											
N#CC1(C#N)C2C=CC(C3CC=CC32)C1(C#N)C#N (centres undefined)		> 50	3.36 µM and 7.76 µM	3.43	4.89 µM and 21.1 µM	9.16 µM and 18.7 µM	21.6	21	> 50	2.19	17.2	8.86	9.34							
CCC(CO)COC(=O)/C=C/C(=O)OCC(CC)CO (centres undefined)	> 100	> 100	> 100 µM	> 82.6	> 100 µM	> 100 µM	> 100	> 100	> 100											
O=C(O)c1ccc(NCn2nc(-c3ccccc3O)oc2=S)cc1O		> 100	> 100 µM				> 100	> 100	> 100	95.2	> 100			21	> 100	38.9	> 100	> 100		
O=[N+]([O-])c1cccc(C=NC23CC4CC(CC(C4)C2)C3)c1	> 100	> 100	> 100 µM	> 100		> 100 µM	> 100	> 100	> 100											
CN(CC(=O)O)S(=O)(=O)c1ccc(Cl)cc1	> 100	> 100	> 100 µM	> 100	> 100 µM	> 100 µM	> 100	> 100	> 100											
S=c1sc2sc(=S)sc2s1	82.6	72	> 100 µM	> 100	> 100 µM	> 100 µM		> 100												
O=C([CH-]C(=O)c1ccccc1)c1ccccc1.O=C([CH-]C(=O)c1ccccc1)c1ccccc1.[CH2-]CCC.[CH2-]CCC.[Sn+4]	2.29	2.35	1.35 µM		0.334 µM			4.12	0.938	0.313		0.11		0.26	1.12			1.82	1.04	
COC(=O)Nc1nc2ccc(C(=O)C3CC3)cc2[nH]1			30.5 µM		0.696 µM	> 100 µM	> 63.7	> 100	30.2	0.581	> 46.1	0.219	0.551	0.423	0.248	1.28	0.506	0.452		0.332
S=C1NC(c2ccccc2)=NC(Cc2ccccc2)(c2ccccc2)N1c1ccccc1 (centres undefined)	57.1	> 100	> 100 µM	> 100	> 100 µM	> 100 µM	> 100	> 100	> 100											
CC(=O)NS(=O)(=O)c1ccc(-n2nc(-c3ccccc3)cc2-c2cc(O)ccc2O)cc1		> 100	> 100 µM	> 100	> 100 µM		> 100	> 100	> 100	57.5	> 100	> 100		> 100	> 100	39.2	> 100	> 100		> 100
COC(=O)CCC(=O)C(CC(=O)OC)C(=O)CCC(=O)NCCc1ccccc1 (centres undefined)	> 100	> 100	> 100 µM	> 100	> 100 µM	> 100 µM	> 100	> 100	> 100											
COC(=O)C(=O)C(C(=O)C(=O)Nc1ccccc1C(N)=O)c1nc2ccc([N+](=O)[O-])cc2[nH]c1=O (centres undefined)	> 100	> 100	> 100 µM	> 100	> 100 µM	> 100 µM	> 100	> 100	> 100											
Cn1cnc([N+](=O)[O-])c1Sc1nccn1-c1ccccc1	> 100	> 100	> 100 µM	> 100	> 100 µM	> 100 µM	> 100	> 100	> 100											
CCOC(=O)Cc1csc(Nc2nc(O)c(C3=c4ccccc4=NC3=O)s2)n1		75.3	43.2 µM	50.8	53.2 µM	> 100 µM	> 100	> 100	42.8	21.7	72.1	20.9	42.3	21.3	32.1	29.1	45.7	32.4		21.1
N#CCC(=O)N/N=C(/C(=O)Nc1ccccc1)C1C(=O)N(c2ccccc2)N=C1N (centres undefined)	> 100	> 100	> 100 µM	> 100	> 100 µM	> 100 µM	> 100	> 100	> 100											
Cc1cc2c(=O)cc(-c3ccc(Cl)c(Cl)c3)oc2c(C(=O)O)c1C	> 100	> 100	> 100 µM	> 100	> 100 µM	> 100 µM	> 100	> 100	> 100											
CN1C(=O)CNS1(=O)=O	> 100	> 100	> 100 µM	> 100	> 100 µM		> 100	> 100	> 100											
CCOc1ccc(N=C2NC(=O)C(CC(=O)Nc3ccc(Cl)cc3Cl)S2)cc1 (centres undefined)	> 100	> 100	> 100 µM	> 100	> 100 µM	> 100 µM	> 100	> 100												
Cc1ccccc1C(C#N)/C(=N/NC(N)=S)C(=O)Nc1c(C)cccc1C (centres undefined)	> 100	> 100	> 100 µM	> 100	> 100 µM	> 100 µM	> 100	> 100	> 100											

Source: PubChem BioAssay (NCI)
